Where two headings read alike, the source gives them in different places.
Experiments:
indicated test organism = test: Acute mouse protection test; assay type: in vivo, female, Swiss albino mice; settings: 1 and 5 hours post-infection, 7 days, * = highest level tested
[1] = Stability and release of drug from prodrug in aqueous buffers pH 2 to 12 (dissolution apparatus, HPLC); assay type: physicochemical
Protocol: Samples of 2'-trimethylsilylerythromycin A and 2'-trimethylsilyl-6-O-methylerythromycin A were dissolved in 10-50 ml dimethyl sulfoxide or acetonitrile to give a solution containing 15-75 mg/ml. An aliquot containing 75 mg of prodrug was added to aqueous buffers ranging in pH from 2 to 12 to give a final volume equal to 500 ml. The buffered mixtures were stirred at 37° C. for at least 90 minutes. A standard dissolution test apparatus (Vanderkamp 600, Van-Kel Industries, Inc., 36 Meridian Road, Edisoin, N.J. 08820) was used to provide temperature and stirring rate control.
Aliquots were taken at 15, 30, 45, 60, 90, 120, 180, 240 and 360 minutes for analysis. Each sample was mixed with an internal standard, adjusted rapidly to pH 9 with 1M tricine buffer and extracted immediately with ethyl acetate. The organic extracts were evaporated and redissolved in a solution of 3% tetrahydrofuran in heptane. Samples of these solutions were injected using an autosampler (WISP 71)B, Waters Chromatography, Division of Millipore, 34 Maple Street, Milford, Mass. 01757). The prodrugs and drugs were separated by high performance liquid chromatography, detected at 225 nm using a spectrophotometer (Spectroflow 773 Absorbence Detector, Kratos Analytical Instruments), and were quantified with a digital integrator.

Strep. pyogenes = test: Extended mouse protection study; settings: oral
Staph. aureus = test: Extended mouse protection study; settings: oral
Strep. pneumoniae = test: Extended mouse protection study; settings: oral
[2] = Mus musculus, po, 168 h, oral administration, read-out: ED50
[3] = Mus musculus, sc, 168 h, subcutaneous administration
[4] = Mus musculus, po, 168 h, oral administration
[5] = carboxymethylcellulose with milk (reduces gastric acid secretion)
[6] = phosphate buffer solution with milk (reduces gastric acid secretion)

CC[C@H]1OC(=O)[C@H](C)[C@@H](O[C@H]2C[C@@](C)(OC)[C@@H](O[Si](C)(C)C)[C@H](C)O2)[C@H](C)[C@@H](O[C@@H]2O[C@H](C)C[C@H](N(C)C)[C@H]2O)[C@](C)(OC)C[C@@H](C)C(=O)[C@H](C)[C@@H](O[Si](C)(C)C)[C@]1(C)O [Example 10, 4"-11-bis(O-TMS)-6-O-methyl erythromycin A]
ED50 (indicated test organism; [2]): 51.8 mg/kg
ED50 (indicated test organism; [3]): 40 mg/kg

CC[C@H]1OC(=O)[C@H](C)[C@@H](O[C@H]2C[C@@](C)(OC)[C@@H](O)[C@H](C)O2)[C@H](C)[C@@H](O[C@@H]2O[C@H](C)C[C@H](N(C)C)[C@H]2O[Si](C)(C)C)[C@](C)(O)C[C@@H](C)C(=NO[Si](C)(C)C)[C@H](C)[C@@H](O)[C@]1(C)O [Example 11, 2',9-bis(O-trimethylsilyl)-Erythromycin A-9-oxime]
ED50 (indicated test organism; [4]): 150 mg/kg
ED50 (indicated test organism; [3]): 40 mg/kg

CC[C@H]1OC(=O)[C@H](C)[C@@H](O[C@H]2C[C@@](C)(OC)[C@@H](O[Si](C)(C)C)[C@H](C)O2)[C@H](C)[C@@H](O[C@@H]2O[C@H](C)C[C@H](N(C)C)[C@H]2OC(C)=O)[C@](C)(O)C[C@@H](C)C(=O)[C@H](C)[C@@H](O[Si](C)(C)C)[C@]1(C)O [Example 12, 2'-Acetyl-4",11-bis (-O-TMS)-Erythromycin A]
ED50 (indicated test organism; [4]): 250 mg/kg
ED50 (indicated test organism; [3]): 40 mg/kg

CC[C@H]1OC(=O)[C@H](C)[C@@H](O[C@H]2C[C@@](C)(OC)[C@@H](O[Si](C)(C)C)[C@H](C)O2)[C@H](C)[C@@H](O[C@@H]2O[C@H](C)C[C@H](N(C)C)[C@H]2O)[C@](C)(O)C[C@@H](C)C(=O)[C@H](C)[C@@H](O)[C@]1(C)O [Example 8, 4"-O-trimethylsilyl erythromycin A]
ED50 (indicated test organism; [2]): 99.7 mg/kg
ED50 (indicated test organism; Mus musculus, sc, 168 h, subcutaneous administration, read-out: ED50): 16 mg/kg
ED50 (indicated test organism; oral administration, listed as 4"-O--TMS Ery A, 10080 min): 61.5 mg/kg/day

CC[C@H]1OC(=O)[C@H](C)[C@@H](O[C@H]2C[C@@](C)(OC)[C@@H](O)[C@H](C)O2)[C@H](C)[C@@H](O[C@@H]2O[C@H](C)C[C@H](N(C)C)[C@H]2O[Si](C)(C)C)[C@](C)(O)C[C@@H](C)C(=O)[C@H](C)[C@@H](O)[C@]1(C)O [Example 2, 2'-O-Trimethylsilyl Erythromycin A]
degradation ([1]; pH 2 and 4, 37° C.): degraded to anhydroerythromycin A
anhydroerythromycin formed ([1]; pH 6, 37° C.): significant amounts
erythromycin A detected ([1]; pH 6, 37° C.): A very small amount
erythromycin formed ([1]; pH 8, 10 or 12, 37° C.): No erythromycin was formed

CC[C@H]1OC(=O)[C@H](C)[C@@H](O[C@H]2C[C@@](C)(OC)[C@@H](O)[C@H](C)O2)[C@H](C)[C@@H](O[C@@H]2O[C@H](C)C[C@H](N(C)C)[C@H]2O)[C@](C)(OC)C[C@@H](C)C(=O)[C@H](C)[C@@H](O)[C@]1(C)O [6-O-methyl erythromycin A]
ED50 (Strep. pyogenes; [5]): 5.3 mg/kg/day
ED50 (Strep. pyogenes; phosphate buffer solution): 5.9 mg/kg/day
ED50 (Strep. pyogenes; [6]): 11.1 mg/kg/day
ED50 (Staph. aureus; carboxymethylcellulose): 25.0 mg/kg/day
ED50 (Staph. aureus; phosphate buffer solution): 27.2 mg/kg/day
ED50 (Strep. pneumoniae; carboxymethylcellulose): 2.4 mg/kg/day
ED50 (Strep. pneumoniae; [5]): 2.2 mg/kg/day
ED50 (Strep. pneumoniae; phosphate buffer solution): 1.6 mg/kg/day
ED50 (Strep. pneumoniae; [6]): 1.6 mg/kg/day
